Patent US9670227B2, “Thienopyrimidine derivatives, a process for their preparation and pharmaceutical compositions containing them” (LES LABORATOIRES SERVIER, priority 2013, dated 2017)
Read-outs that look alike come from different tables or passages of the source.

Key:
[1] = system: H929 multiple myeloma tumour line; experiment: In vitro cytotoxicity, Microculture Tetrazolium Assay; format: cell-based; details: H929 cells, 48 hours exposure, MTT, read-out: IC50 (μM) MTT H929
Protocol: The cytotoxicity studies were carried out on the H929 multiple myeloma tumour line.
The cells are distributed onto microplates and exposed to the test compounds for 48 hours.

Mcl-1 protein = Mcl-1 protein (UniProtKB primary accession number: Q07820) (Homo sapiens, UniProt Q07820); experiment: Inhibition of Mcl-1 by fluorescence polarisation, Method 1; format: binding; details: read-out: IC50 (M) Mcl-1 FP
Chain of Mcl-1 protein (Q07820 whole entry): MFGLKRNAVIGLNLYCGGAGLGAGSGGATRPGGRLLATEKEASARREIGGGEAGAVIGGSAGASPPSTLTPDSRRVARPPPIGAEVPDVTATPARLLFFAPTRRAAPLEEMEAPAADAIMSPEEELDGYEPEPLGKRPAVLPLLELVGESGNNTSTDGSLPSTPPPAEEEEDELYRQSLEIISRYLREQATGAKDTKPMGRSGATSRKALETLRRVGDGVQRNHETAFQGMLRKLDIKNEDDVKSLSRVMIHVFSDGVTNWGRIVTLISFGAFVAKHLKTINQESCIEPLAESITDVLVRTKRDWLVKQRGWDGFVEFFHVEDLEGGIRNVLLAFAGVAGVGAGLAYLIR
In short: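 Buffer of 10 mM HEPES pH 7.4 with 150 mM NaCl and 0.05% Tween 20 held 5 nM Mcl-1 and 1 nM fluorescein-tagged ligand (final). Compounds were tested as 11-point serial dilutions at 5% final DMSO, and binding was read by FP.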

[2] = fluorescence polarisation, Method 1, or Method 2
[3] = fluorescence polarisation test, Method 2 values are underlined in the patent (underlining not visible here)

Row | IC50 (Mcl-1 protein; [2]) [M] | IC50 (Mcl-1 protein; [3]) [M] | Compound | IC50 ([1]; Homo sapiens, NCI-H929, 48 h) [µM] | IC50 [1] [µM]
1 | 7.1e-08 |  | COc1ccccc1CC(Oc1ncnc2sc(-c3cc(F)cc(F)c3)c(-c3ccc(OCCN4CCN(C)CC4)c(Cl)c3C)c12)C(=O)O [Example 527, (2R)-2-{[(5Sa)-5-{3-chloro-2-methyl-4-[2-(4-methylpiperazin-1-yl)ethoxy]phenyl}-6-(3,5-difluorophenyl)thieno[2,3-d]pyrimidin-4-yl]oxy}-3-(2-methoxyphenyl)propanoic acid] | 0.272 | 
2 | 6.2e-09 |  | COc1nccc(COc2ccccc2CC(Oc2ncnc3sc(-c4ccc(F)c(OCCO)c4)c(-c4ccc(OCCN5CCN(C)CC5)c(Cl)c4C)c23)C(=O)O)n1 [Example 597, (2R)-2-[((5Sa)-5-{3-chloro-2-methyl-4-[2-(4-methylpiperazin-1-yl)ethoxy]phenyl}-6-[4-fluoro-3-(2-hydroxyethoxy)phenyl]thieno[2,3-d]pyrimidin-4-yl)oxy]-3-{2-[(2-methoxypyrimidin-4-yl)methoxy]phenyl}propanoic acid] | 0.449 | 
3 |  | 5e-09 | Cc1c(-c2c(-c3ccc(F)o3)sc3ncnc(OC(Cc4ccccc4OCc4ccncn4)C(=O)O)c23)ccc(OCCN2CCN(C)CC2)c1Cl [Example 179, (2R)-2-{[(5Sa)-5-{3-chloro-2-methyl-4-[2-(4-methylpiperazin-1-yl)ethoxy]phenyl}-6-(5-fluorofuran-2-yl)thieno[2,3-d]pyrimidin-4-yl]oxy}-3-[2-(pyrimidin-4-ylmethoxy)phenyl]propanoic acid] | 0.03 | 
4 | 6.4e-09 |  | COCCOc1ccc(-c2sc3ncnc(OC(Cc4ccccc4OCc4ccnn4CC(F)(F)F)C(=O)O)c3c2-c2ccc(OCCN3CCN(C)CC3)c(Cl)c2C)cn1 [Example 694, (2R)-2-[((5Sa)-5-{3-chloro-2-methyl-4-[2-(4-methylpiperazin-1-yl)ethoxy]phenyl}-6-[6-(2-methoxyethoxy)pyridin-3-yl]thieno[2,3-d]pyrimidin-4-yl)oxy]-3-(2-{[1-(2,2,2-trifluoroethyl)-1H-pyrazol-5-yl]methoxy}phenyl)propanoic acid] | 0.183 | 
5 |  | 3.6e-09 | CNC(=O)COc1ccccc1CC(Oc1ncnc2sc(-c3ccc(F)o3)c(-c3ccc(OCCN4CCN(C)CC4)c(Cl)c3C)c12)C(=O)O [Example 151, (2R)-2-{[(5Sa)-5-{3-chloro-2-methyl-4-[2-(4-methylpiperazin-1-yl)ethoxy]phenyl}-6-(5-fluorofuran-2-yl)thieno[2,3-d]pyrimidin-4-yl]oxy}-3-{2-[2-(methylamino)-2-oxoethoxy]phenyl}propanoic acid] | 0.309 | 
6 |  | 4.4e-09 | Cc1c(-c2c(-c3ccc(F)cc3)sc3ncnc(OC(Cc4ccccc4OCc4ccnc(Oc5ccccc5)n4)C(=O)O)c23)ccc(OCCN2CCN(C)CC2)c1Cl [Example 56, (2R)-2-{[(5Sa)-5-{3-chloro-2-methyl-4-[2-(4-methylpiperazin-1-yl)ethoxy]phenyl}-6-(4-fluorophenyl)thieno[2,3-d]pyrimidin-4-yl]oxy}-3-{2-[(2-phenoxypyrimidin-4-yl)methoxy]phenyl}propanoic acid] | 0.022 | 
7 |  | 9.7e-09 | CCn1nccc1COc1ccccc1CC(Oc1ncnc2sc(-c3ccc(Cl)o3)c(-c3ccc(OCCN4CCN(C)CC4)c(Cl)c3C)c12)C(=O)O [Example 372, (2R)-2-{[6-(5-chlorofuran-2-yl)-(5Sa)-5-{3-chloro-2-methyl-4-[2-(4-methylpiperazin-1-yl)ethoxy]phenyl}thieno[2,3-d]pyrimidin-4-yl]oxy}-3-{2-[(1-ethyl-1H-pyrazol-5-yl)methoxy]phenyl}propanoic acid] | 0.018 | 
8 |  | 5.8e-09 | Cc1c(-c2c(-c3ccc(F)o3)sc3ncnc(OC(Cc4ccccc4OCc4ccnc(C(F)(F)F)n4)C(=O)O)c23)ccc(OCCN(C)C)c1Cl [Example 201, (2R)-2-{[(5Sa)-5-{3-chloro-4-[2-(dimethylamino)ethoxy]-2-methylphenyl}-6-(5-fluorofuran-2-yl)thieno[2,3-d]pyrimidin-4-yl]oxy}-3-(2-{[2-(trifluoromethyl)pyrimidin-4-yl]methoxy}phenyl)propanoic acid] | 0.027 | 
9 | 3.9e-08 |  | COc1ccccc1CC(Oc1ncnc2sc(-c3cnco3)c(-c3ccc(OCCN4CCN(C)CC4)c(Cl)c3C)c12)C(=O)O [Example 569, (2R)-2-{[(5Sa)-5-{3-chloro-2-methyl-4-[2-(4-methylpiperazin-1-yl)ethoxy]phenyl}-6-(1,3-oxazol-5-yl)thieno[2,3-d]pyrimidin-4-yl]oxy}-3-(2-methoxyphenyl)propanoic acid] | 1.73 | 
10 | 1.1e-08 |  | CCC#Cc1sc2ncnc(OC(Cc3ccccc3OC)C(=O)O)c2c1-c1ccc(OCCN2CCN(C)CC2)c(Cl)c1C [Example 573, (2R)-2-{[6-(but-1-yn-1-yl)-(5Sa)-5-{3-chloro-2-methyl-4-[2-(4-methylpiperazin-1-yl)ethoxy]phenyl}thieno[2,3-d]pyrimidin-4-yl]oxy}-3-(2-methoxyphenyl)propanoic acid] | 0.366 | 
11 |  | 5.1e-09 | Cc1cccc(COc2ccccc2CC(Oc2ncnc3sc(-c4ccco4)c(-c4ccc(OCCN5CCN(C)CC5)c(Cl)c4C)c23)C(=O)O)n1 [Example 235, (2R)-2-{[(5Sa)-5-{3-chloro-2-methyl-4-[2-(4-methylpiperazin-1-yl)ethoxy]phenyl}-6-(furan-2-yl)thieno[2,3-d]pyrimidin-4-yl]oxy}-3-{2-[(6-methylpyridin-2-yl)methoxy]phenyl}propanoic acid] | 0.098 | 
12 |  | 4.8e-08 | Cc1c(-c2c(-c3ccco3)sc3ncnc(OC(Cc4ccccc4OCc4nccc5ccccc45)C(=O)O)c23)ccc(OCCN2CCN(C)CC2)c1Cl [Example 284, (2R)-2-{[(5Sa)-5-{3-chloro-2-methyl-4-[2-(4-methylpiperazin-1-yl)ethoxy]phenyl}-6-(furan-2-yl)thieno[2,3-d]pyrimidin-4-yl]oxy}-3-[2-(isoquinolin-1-ylmethoxy)phenyl]propanoic acid] | 1.79 | 

The next lines start with the molecule.

Row | Compound | IC50 (Mcl-1 protein; [2]) [M] | IC50 (Mcl-1 protein; [3]) [M] | IC50 ([1]; Homo sapiens, NCI-H929, 48 h) [µM] | IC50 [1] [µM]
13 | COc1ccccc1CC(Oc1ncnc2sc(-c3cc4sccc4s3)c(-c3ccc(OCCN4CCN(C)CC4)c(Cl)c3C)c12)C(=O)O [Example 530, (2R)-2-{[(5Sa)-5-{3-chloro-2-methyl-4-[2-(4-methylpiperazin-1-yl)ethoxy]phenyl}-6-(thieno[3,2-b]thiophen-2-yl)thieno[2,3-d]pyrimidin-4-yl]oxy}-3-(2-methoxyphenyl)propanoic acid] | 1.2e-07 |  | 1.59 | 
14 | Cc1c(-c2c(-c3ccco3)sc3ncnc(OC(Cc4ccccc4OCCOc4ccccc4)C(=O)O)c23)ccc(OCCN2CCN(C)CC2)c1Cl [Example 291, (2R)-2-{[(5Sa)-5-{3-chloro-2-methyl-4-[2-(4-methylpiperazin-1-yl)ethoxy]phenyl}-6-(furan-2-yl)thieno[2,3-d]pyrimidin-4-yl]oxy}-3-[2-(2-phenoxyethoxy)phenyl]propanoic acid] |  | 3.8e-08 | 1.3 | 
15 | Cc1c(-c2c(-c3ccc(F)cc3)sc3ncnc(OC(Cc4ccccc4OCC4CCCO4)C(=O)O)c23)ccc(OCC2CCN(C)C2)c1Cl [Example 649, (2R)-2-{[(5Sa)-5-{3-chloro-2-methyl-4-[(1-methylpyrrolidin-3-yl)methoxy]phenyl}-6-(4-fluorophenyl)thieno[2,3-d]pyrimidin-4-yl]oxy}-3-{2-[(2R)-tetrahydrofuran-2-ylmethoxy]phenyl}propanoic acid] | 2.3e-08 |  | 0.341 | 
16 | Cc1c(-c2c(-c3ccc(F)cc3)sc3ncnc(OC(Cc4ccccc4OCc4ccnc(-c5ccccc5OCc5ccccc5)n4)C(=O)O)c23)ccc(OCCN2CCN(C)CC2)c1Cl [Example 725, (2R)-3-[2-({2-[2-(benzyloxy)phenyl]pyrimidin-4-yl}methoxy)phenyl]-2-{[(5Sa)-5-{3-chloro-2-methyl-4-[2-(4-methylpiperazin-1-yl)ethoxy]phenyl}-6-(4-fluorophenyl)thieno[2,3-d]pyrimidin-4-yl]oxy}propanoic acid] | 1.46e-09 |  | 0.01 | 
17 | COc1ccccc1CC(Oc1ncnc2sc(-c3ccco3)c(-c3ccc(OCCN(C)C)c(Cl)c3C)c12)C(=O)O [Example 320, (2R)-2-{[(5Sa)-5-{3-chloro-4-[2-(dimethylamino)ethoxy]-2-methylphenyl}-6-(furan-2-yl)thieno[2,3-d]pyrimidin-4-yl]oxy}-3-(2-methoxyphenyl)propanoic acid] |  | 6.5e-09 | 0.471 | 
18 | CCCCOc1ccc(-c2c(CC)sc3ncnc(OC(Cc4ccccc4)C(=O)O)c23)c(C)c1Cl [Example 398, (2R)-2-{[(5Sa)-5-(4-butoxy-3-chloro-2-methylphenyl)-6-ethylthieno[2,3-d]pyrimidin-4-yl]oxy}-3-phenylpropanoic acid] | 1.5e-06 |  | 23.8 | 
19 | CCCCn1nccc1COc1ccccc1CC(Oc1ncnc2sc(-c3ccc(C#N)cc3)c(-c3ccc(OCCN4CCN(C)CC4)c(Cl)c3C)c12)C(=O)O [Example 600, (2R)-3-{2-[(1-butyl-1H-pyrazol-5-yl)methoxy]phenyl}-2-{[(5Sa)-5-{3-chloro-2-methyl-4-[2-(4-methylpiperazin-1-yl)ethoxy]phenyl}-6-(4-cyanophenyl)thieno[2,3-d]pyrimidin-4-yl]oxy}propanoic acid] | 4.1e-09 |  | 0.031 | 
20 | Cc1c(-c2c(-c3ccc(Cl)o3)sc3ncnc(OC(Cc4ccccc4OCC4CCCO4)C(=O)O)c23)ccc(OCCN2CCN(C)CC2)c1Cl [Example 377, (2R)-2-{[6-(5-chlorofuran-2-yl)-(5Sa)-5-{3-chloro-2-methyl-4-[2-(4-methylpiperazin-1-yl)ethoxy]phenyl}thieno[2,3-d]pyrimidin-4-yl]oxy}-3-{2-[(2S)-tetrahydrofuran-2-ylmethoxy]phenyl}propanoic acid] |  | 3.8e-09 |  | 0.047
